Source: patent US9845292B2 (Max-Planck-Gesellschaft zur Förderung der Wissenschaften …, priority 2013, dated 2017)
Where two headings read alike, the source gives them in different places.

How the values were obtained:
[1] = target: T1, FKBP51 (Homo sapiens, UniProt Q13451); experiment: Fluorescence polarization binding assay, FK1-domain of FKBP51WT with tracer F4; design: Purified FK1-domains of FKBP51WT (4.5 nM) with F4 (3 nM), FKBP52WT (400 nM) with F2 (20 nM); made in house; host or cells: E. coli BL21(DE3)pLysS; details: read-out: Affinity(Ki) for FKBP51
T1 sequence (Q13451 42-130 limits assumed): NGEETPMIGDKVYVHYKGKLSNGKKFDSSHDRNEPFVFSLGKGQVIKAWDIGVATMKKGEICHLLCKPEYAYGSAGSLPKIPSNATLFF
Description: (§1) The target protein was also diluted in this assay buffer at double the highest concentration required for the final sample. This protein stock was used for a 1:1 serial dilution.
(§2) The inventive compound was dissolved in DMSO to reach a 100-times concentrated stock solution. This was used for a 1:1 serial dilution in DMSO.
(§3) For FKBP12, −51, and −52 the binding assays were performed in duplicates in the plate format.
(§4) The competition curves were analyzed by using SigmaPlot9. Data were fitted to a four parameter logistic curve to deduce the IC50 values. […] A=(Amax−Amin)/[L]t×(([L]t×((2×((Klig+Kcomp+[L]t+[I]t−[R]t)^2−3×(Kcomp×([L]t−[R]t)+Klig×([I]t−[R]t)+Klig×Kcomp))^0.5×COS(ARCCOS((−2×(Klig+Kcomp+[L]t+[I]t−[R]t)^3+9×(Klig+Kcomp+[L]t+[I]t−[R]t)×(Kcomp×([L]t−[R]t)+Klig×([I]t−[R]t)+Klig×Kcomp)−27×(−1×Klig×Kcomp×[R]t))/(2×((((Klig+Kcomp+[L]t+[I]t−[R]t)^2−3×(Kcomp×([L]t−[R]t)+Klig×([I]t−[R]t)+Klig×Kcomp))^3)^0.5)))/3))−(Klig+Kcomp+[L]t+[I]t−[R]t)))/((3×Klig)+((2×((Klig+Kcomp+[L]t+[I]t−[R]t)^2−3×(Kcomp×([L]t−[R]t)+Klig×([I]t−[R]t)+Klig×Kcomp))^0.5×COS(ARCCOS((−2×(Klig+Kcomp+[L]t+[I]t−[R]t)^3+9×(Klig+Kcomp+[L]t+[I]t−[R]t)×(Kcomp×([L]t−[R]t)+Klig×([I]t−[R]t)+Klig×Kcomp)−27×(−1×Klig×Kcomp×[R]t))/(2×((((Klig+Kcomp+[L]t+[I]t−[R]t)^2−3×(Kcomp×([L]t−[R]t)+Klig×([I]t−[R]t)+Klig×Kcomp))^3)^0.5)))/3))−(Klig+Kcomp+[L]t+[I]t−[R]t))))+Amin
(§5) In this equation Klig and Kcomp stand for the Kd values of the used tracer or competing inhibitor, [I]t is referring to the total concentration of the titrated inhibitor.
(§6) Inhibition constants were measured in a fluorescence polarization binding assay by titrating the compounds.

[2] = target: T2, FKBP52 (Homo sapiens, UniProt Q02790); experiment: Fluorescence polarization binding assay, FK1-domain of FKBP52WT with tracer F2 (selectivity FKBP51 vs. FKBP52); details: selectivity factor over FKBP52
T2 construct: Purified FK1-domains of FKBP51WT (4.5 nM) with F4 (3 nM), FKBP52WT (400 nM) with F2 (20 nM); implied by Ni-NTA purification) (N); made in house; host or cells: E. coli BL21(DE3)pLysS
T2 sequence (Q02790 50-138 limits assumed): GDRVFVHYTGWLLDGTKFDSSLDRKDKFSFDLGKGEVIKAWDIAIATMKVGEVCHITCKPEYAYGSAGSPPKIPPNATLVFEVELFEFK
Description: as §1, §2, §3, §4, §5
The Selectivity of the Compounds was Classified by Ki(FKBP51)/Ki(FKBP52)
as §6

[3] = FK1-domain of FKBP51WT (4.5 nM) with F4 (3 nM), A series
[4] = FKBP52WT (400 nM) with F2 (20 nM), A series

Row | SMILES | Ki ([1]; compounds B01-C25) [µM] | Ki(FKBP51)/Ki(FKBP52) ([2]; compounds B01-C25) | Ki [1, 3] [µM] | Ki(FKBP51)/Ki(FKBP52) [2, 4]
1 | COc1cc([C@@H](C(=O)N2CCCC[C@H]2C(=O)OC2C=CCCC2)C2CCCCC2)cc(OC)c1OC (mixture of isomers) [Compound C15, (2S)-cyclohex-2-en-1-yl-1-((S)-2-cyclohexyl-2-(3,4,5-trimethoxyphenyl)acetyl) piperidine-2-carboxylate] | 1 to 10 | ++ (>50 ++) | – | –
2 | COc1ccc(CCC(OC(=O)C2CCCCN2C(=O)[C@H](c2cc(OC)c(OC)c(OC)c2)[C@@H]2C=CCCC2)c2cccc(OCCN3CCOCC3)c2)cc1OC (stereo in doubt) [Compound A12, (S)-(R)-3-(3,4-Dimethoxyphenyl)-1-(3-(2-morpholinoethoxy)phenyl)propyl-1-((S)-2-((S)-cyclohex-2-en-1-yl)-2-(3,4,5-trimethoxyphenyl)acetyl)piperidine-2-carboxylate] | – | – | < 0.1 | +++ (>500 +++)
3 | COc1ccc(OCCOC(=O)[C@@H]2CCCCN2C(=O)[C@H](c2cc(OC)c(OC)c(OC)c2)C2C=CCCC2)cc1OC (stereo in doubt) [Compound A14, (S)-2-(3,4-Dimethoxyphenoxy)ethyl-1-((S)-2-((R)-cyclohex-2-en-1-yl)-2-(3,4,5-trimethoxyphenyl)acetyl)piperidine-2-carboxylate] | – | – | 0.1 to 1 | ++ (>50 ++)
4 | COc1ccc(CCC(OC(=O)C2CCCN2C(=O)[C@H](c2cc(OC)c(OC)c(OC)c2)C2C=CCCC2)c2cccc(OCCN3CCOCC3)c2)cc1OC (stereo in doubt) [Compound A15, (S)-(R)-3-(3,4-dimethoxyphenyl)-1-(3-(2-morpholinoethoxy)phenyl)propyl-1-((S)-2-((R)-cyclohex-2-en-1-yl)-2-(3,4,5-trimethoxyphenyl)acetyl)pyrrolidine-2-carboxylate] | – | – | < 0.1 | +++ (>500 +++)
5 | CCC(C)OC(=O)C1CCCCN1C(=O)[C@H](c1cc(OC)c(OC)c(OC)c1)C1CCCCC1 (stereo in doubt) [Compound C08, (S)-(R)-sec-butyl-1-((S)-2-cyclohexyl-2-(3,4,5-trimethoxyphenyl)acetyl) piperidine-2-carboxylate] | 1 to 10 | ++ (>50 ++) | – | –
6 | C=CC[C@H](C(=O)N1CCCC1C(=O)OC(CCc1ccc(OC)c(OC)c1)c1cccc(OCCN2CCOCC2)c1)c1cc(OC)c(OC)c(OC)c1 (stereo in doubt) [Reference A33, (S)-(R)-3-(3,4-Dimethoxyphenyl)-1-(3-(2-morpholinoethoxy)phenyl)propyl-1-((S)-2-(3,4,5-trimethoxyphenyl)pent-4-enoyl)pyrrolidine-2-carboxylate] | – | – | – | not selective (<5 not selective)
7 | C=CC[C@H](C(=O)N1CCCC[C@H]1C(=O)OC(CCCc1cccnc1)CCCc1cccnc1)c1cc(OC)c(OC)c(OC)c1 [Compound A04, (S)-1,7-di(pyridin-3-yl)heptan-4-yl 1-((S)-2-(3,4,5-trimethoxyphenyl)pent-4-enoyl)piperidine-2-carboxylate] | – | – | 10 to 50 | + (>5 +)
8 | C=CC[C@H](C(=O)N1CCCC[C@H]1C(=O)N[C@H](CCc1ccc(OC)c(OC)c1)c1cccc(OCCN2CCOCC2)c1)c1cc(OC)c(OC)c(OC)c1 [Compound A05, (S)-N-((R)-3-(3,4-dimethoxyphenyl)-1-(3-(2-morpholinoethoxy)phenyl)propyl)-1-((S)-2-(3,4,5-trimethoxyphenyl)pent-4-enoyl)piperidine-2-carboxamide] | – | – | 1 to 10 | + (>5 +)
9 | C=CC[C@H](C(=O)N1CC=CC[C@H]1C(=O)O[C@H](CCc1ccc(OC)c(OC)c1)c1cccc(OCCN2CCOCC2)c1)c1cc(OC)c(OC)c(OC)c1 [Compound A06] | – | – | 10 to 50 | + (>5 +)
10 | COc1ccc(CC[C@@H](OC(=O)[C@@H]2CCCCN2C(=O)[C@@H](Cc2ccccc2)c2cc(OC)c(OC)c(OC)c2)c2cccc(OCC(=O)O)c2)cc1OC [Compound A10, 2-(3-((R)-3-(3,4-dimethoxyphenyl)-1-(((S)-1-((S)-3-phenyl-2-(3,4,5-trimethoxyphenyl)propanoyl)piperidine-2-carbonyl)oxy)propyl)phenoxy)acetic acid] | – | – | 10 to 50 | + (>5 +)
11 | COc1ccc(CC[C@@H](OC(=O)[C@@H]2CCCCN2C(=O)[C@H](c2cc(OC)c(OC)c(OC)c2)[C@@H]2C=CCCC2)c2cccc(OCC(=O)O)c2)cc1OC [Compound A11, 2-(3-((R)-1-(((S)-1-((S)-2-((S)-Cyclohex-2-en-1-yl)-2-(3,4,5-trimethoxyphenyl)acetyl)piperidine-2-carbonyl)oxy)-3-(3,4-dimethoxyphenyl)propyl)phenoxy) acetic acid] | – | – | < 0.1 | +++ (>500 +++)
12 | COc1cc([C@@H](C(=O)N2CCCC[C@H]2C(=O)OC(CCCc2cccnc2)CCCc2cccnc2)[C@@H]2C=CCCC2)cc(OC)c1OC [Compound A13, (S)-1,7-Di(pyridin-3-yl)heptan-4-yl-1-((S)-2-((S)-cyclohex-2-en-1-yl)-2-(3,4,5-trimethoxyphenyl)acetyl)piperidine-2-carboxylate] | – | – | < 0.1 | +++ (>500 +++)
13 | COc1ccc(CCC(NC(=O)[C@@H]2CCCCN2C(=O)[C@H](c2cc(OC)c(OC)c(OC)c2)[C@@H]2C=CCCC2)c2cccc(OCC(=O)O)c2)cc1OC (stereo partly drawn) [Compound A16, 2-(3-((R)-1-((S)-1-((S)-2-((R)-Cyclohex-2-en-1-yl)-2-(3,4,5-trimethoxyphenyl)acetyl)piper-idine-2-carboxamido)-3-(3,4-dimethoxyphenyl)propyl)phenoxy) acetic acid] | – | – | 0.1 to 1 | ++ (>50 ++)
14 | COc1cc([C@@H](C(=O)N2CCCC[C@H]2C(=O)OC(CCCc2cccnc2)CCCc2cccnc2)C2CCCCC2)cc(OC)c1OC [Compound A19, (2S)-1,7-di(pyridin-3-yl)heptan-4-yl 1-(2-cyclohexyl-2-(3,4,5-trimethoxyphenyl)acetyl)piperidine-2-carboxylate] | – | – | < 0.1 | +++ (>500 +++)
15 | COc1ccc(OCCOC(=O)[C@@H]2CCCCN2C(=O)[C@H](c2cc(OC)c(OC)c(OC)c2)C2CCCCC2)cc1OC [Compound A20, (S)-2-(3,4-dimethoxyphenoxy)ethyl-1-((S)-2-cyclohexyl-2-(3,4,5-trimethoxyphenyl)acetyl)piperidine-2-carboxylate] | – | – | 0.1 to 1 | ++ (>50 ++)
16 | COc1ccc(CC[C@@H](NC(=O)[C@@H]2CCCCN2C(=O)[C@H](c2cc(OC)c(OC)c(OC)c2)C2CCCCC2)c2cccc(OCC(=O)O)c2)cc1OC [Compound A22, 2-(3-((R)-1-((S)-1-((S)-2-cyclohexyl-2-(3,4,5-trimethoxyphenyl)acetyl)piperidine-2-carboxamido)-3-(3,4-dimethoxyphenyl)propyl)phenoxy)acetic acid] | – | – | 0.1 to 1 | ++ (>50 ++)
17 | COc1ccc(CCC(OC(=O)[C@@H]2CCCCN2C(=O)[C@H](NC(=O)c2ccccc2)C2CCCCC2)c2cccc(OCC(=O)O)c2)cc1OC (stereo partly drawn) [Compound A23, 2-(3-(1-(((2S)-1-(2-benzamido-2-cyclohexylacetyl)piperidine-2-carbonyl)oxy)-3-(3,4-dimethoxyphenyl)propyl)phenoxy)acetic acid] | – | – | 10 to 50 | + (>5 +)
18 | C=CC[C@H](C(=O)N1CCSC[C@H]1C(=O)O[C@H](CCc1ccc(OC)c(OC)c1)c1cccc(OCCN2CCOCC2)c1)c1cc(OC)c(OC)c(OC)c1 [Reference A34, (R)-(R)-3-(3,4-Dimethoxyphenyl)-1-(3-(2-morpholinoethoxy)phenyl)propyl-4-((S)-2-(3,4,5-trimethoxyphenyl)pent-4-enoyl)thiomorpholine-3-carboxylate] | – | – | – | not selective (<5 not selective)
